Test results taken from publication PMC4745783, “The HGF inhibitory peptide HGP-1 displays promising in vitro and in vivo efficacy for targeted cancer therapy” (Oncotarget, 2015).
Entries after “also recorded” stand apart in the source; their conditions may differ. Where no end group is shown, it is not given here. The star is where a group is joined. FITC = O=C1OC2(c3ccc(O)cc3Oc3cc(O)ccc32)c2ccc(NC(=S)*)cc21

Legend:
[1] = tested on: A549 cells; assay: MTT cytotoxicity in HGF-free environment; conditions: 61.5 nM, 615 nM, 3.075 μM; 4-day, medium with 10% FBS; n = 4
Experimental: MTT assay was also used to assess the cytotoxicity of peptides after 4-day incubation with peptides at different concentrations in the medium with 10% FBS. The cells were seeded in the 96-well plate at density of 2000 cells per well.

[2] = target: T1, human full length HGF (Homo sapiens, UniProt P14210); assay: SPR affinity and kinetics; type: binding; conditions: Biacore X100, CM5 chip
T1 construct: purchased Sino Biological Inc. 10463- NHAC-A
Experimental: (§1) To pre-assess the binding ability of peptide to HGF, peptides were coated on the fluorescence plates and incubated with HGF. The well coated with HGP-1 had at least 1500 times higher RFU than the one with SP-H1. […] In order to obtain a precise affinity data of HGP-1, the affinity and kinetics of HGP-1 against HGF was detected by SPR technique (Figure 3a). HGF was immobilized on the surface of a CM5 chip. […] Different concentrations of HGP-1 were injected over the surface of the chip followed by dissociation in buffer without peptide.
Kinetic (ka and kd) and affinity constant (KD) of soluble peptide were determined by surface plasmon resonance technique on a Biacore X100 instrument (GE healthcare). The research-grade CM5 sensor chip was activated following the process which was recommended in the amino coupling reagent kit. Human full length HGF was dissolved in PBS and diluted to a suitable concentration by 20 mM NaCOOH buffer (pH4.0) and immobilized on the chip, and 2000 resonance units were immobilized. The remaining reactive groups were inactivated by ethanolamine. The peptide was dissolved and diluted by HBS-EP ([…], 150 mM NaCl, 3 mM EDTA-Na2 and 0.005% P20, pH7.4). Samples composed of concentrations ranging from 0 to 100 μM of peptides were injected over the protein surface. […] Ka, Kd and KD were calculated by Biacore X100 Evaluation software.

[3] = tested on: A549 cells; type: cell-based, human
Experimental: A549 cells were seeded in a 96-well plate at a density of 7000 cells per well. After overnight culture, cells were starved with serum free DMEM medium for 48 hours. […] After cultured for 4 days, the cell culture medium was changed with fresh medium containing 0.5 mg/mL 3-(4, 5-Dimethylthiazol-2-yl)-2, 5-diphenyltetrazolium bromide (MTT) solution for another 4 hours incubation at 37°C, in 5% CO2. Then, medium was removed and cells were lysed with dimethyl sulfoxide. The absorption of the solution in each well was measured at 490 nm on a VECTOR X4 Multilabel Plate Reader. IC50 value was also determined and calculated by GraphPad Prism 5.

[4] = tested on: MDA-MB-435s cells; assay: Wound healing (scratch) migration assay with HGF; type: cell-based, human; conditions: HGF 0.625 nM, 2-day treatment
Experimental: MDA-MB-435s cells were plated on a 24-well plate (1 × 10^5 cells/well), grown to an 80–90% confluent cell monolayer, and serum-starved for 24 hours. Wounds were scratched gently with tip of a plastic pipet and washed twice with PBS. Subsequently, HGF (0.625 nM) alone or coupled with peptides at the concentrations of 61.5 nM and 615 nM were added into the wells for 2 days treatment. Each well was photographed at 10 × magnification with light microscope before and after peptide treatment. The cell migration capabilities were assessed by calculating the width alteration of the wound area by Photoshop. The percentage of cell migration followed the equation: Percent migration=width before treatment-width after treatment/width before treatment×100%

[5] = tested on: HGF; assay: Binding of HGF to peptides displayed on bacteria, regular vs stringent washing, flow cytometry; parameters: species or system human; conditions: PE-A fluorescence; for binding to HGF in washed group: displayed on bacteria, washed (PBS pH 7.4, 3 times, 4°C, 10 min) vs regular washing
Experimental: Peptide physicochemical properties were preliminarily analyzed with bacteria clones. To evaluate the binding ability of peptides on the surface of bacteria to HGF, the PE-A fluorescence intensity of each clone with different wash procedures were determined by flow cytometry. Bacteria clones undergoing regular or stringent washing procedures after incubation with HGF were prepared. […] Bacteria clones were subcultured and induced as described before. Then, 10^7 bacteria of each clone were incubated with biotinylated HGF referring to sorting procedure. After incubating with HGF, bacteria were divided into two groups. The ‘original’ group was washed referring to sorting procedure, and the ‘washed’ group would have a tough washing. After centrifuged at 3000 × g for 5 minutes, bacteria in ‘washed’ group were resuspended by 1 mL phosphate buffered saline (PBS, PH 7.4) and inverted at 4°C for 10 minutes. The washing steps were repeated for 3 times. Samples from two groups were analyzed by flow cytometry.

[6] = tested on: MDA-MB-435s cells; assay: Wound healing assay without HGF (non-specific inhibition); type: cell-based, human; conditions: 61.5 nM and 615 nM; one day, medium with 10% FBS; n = 3
Experimental: Wound healing assay was applied to evaluate the inhibitory effect of peptides to cell migration after one-day incubation with peptides at different concentrations in medium with 10% FBS.

[7] = tested on: HGF; assay: ELISA, peptides coated on fluorescence plates and incubated with HGF; type: binding, human; conditions: peptide coated, incubated with HGF
Experimental: as §1

[8] = target: T2, Recombinant human full length HGF (human, UniProt P14210 32-728); assay: cell-based or functional assay
[9] = target: T2, Recombinant human full length HGF; assay: SPR; Biacore X100; HGF immobilised on a CM5 chip by amine coupling (2000 RU); peptide 0 to 100 μM in HBS-EP pH 7.4, 30 μL/min, 2 minutes injection, 8 minutes dissociation; conditions: both partners purified

T2 sequence (P14210 32-728): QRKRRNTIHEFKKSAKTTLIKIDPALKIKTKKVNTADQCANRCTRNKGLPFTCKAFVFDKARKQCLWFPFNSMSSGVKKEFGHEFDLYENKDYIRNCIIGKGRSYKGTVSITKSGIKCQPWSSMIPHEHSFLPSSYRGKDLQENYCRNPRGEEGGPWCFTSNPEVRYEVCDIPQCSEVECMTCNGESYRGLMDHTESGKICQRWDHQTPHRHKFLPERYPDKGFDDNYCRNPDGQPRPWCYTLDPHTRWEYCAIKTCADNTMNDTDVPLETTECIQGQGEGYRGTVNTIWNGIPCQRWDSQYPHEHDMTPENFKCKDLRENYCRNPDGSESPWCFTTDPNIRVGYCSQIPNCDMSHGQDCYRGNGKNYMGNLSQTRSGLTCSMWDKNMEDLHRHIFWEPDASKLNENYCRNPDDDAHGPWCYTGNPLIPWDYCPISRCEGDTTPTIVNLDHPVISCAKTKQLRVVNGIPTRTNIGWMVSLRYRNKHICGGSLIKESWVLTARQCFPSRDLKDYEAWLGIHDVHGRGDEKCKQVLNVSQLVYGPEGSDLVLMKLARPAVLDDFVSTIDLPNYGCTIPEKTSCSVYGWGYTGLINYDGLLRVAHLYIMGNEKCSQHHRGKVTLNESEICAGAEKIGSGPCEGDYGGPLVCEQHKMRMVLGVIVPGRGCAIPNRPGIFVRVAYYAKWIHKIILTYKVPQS
T1 sequence (P14210 32-728): as above

HRGLKWEIVPWSGCG [HGP-1]
cytotoxicity to cell proliferation in HGF-free environment [1]: did not exhibit detectable cytotoxicity
kon ([2]; HBS-EP pH 7.4, 30 μL/min, 2 min injection, read-out: ka): 698 M⁻¹ s⁻¹
kb ([2]; HBS-EP pH 7.4, 8 min dissociation, printed kb): 0.001243 s⁻¹
IC50 ([3]; 48 h): 496 µM

TLYEVDLREWCAGIVG [HGP-2]
inhibitory effect on cell migration [4]: inhibited; also recorded: displayed a similar effect on MDA-MB-435s
binding to HGF in washed group [5]: had an obvious reduction
inhibitory effect on migration without HGF [6]: no obvious inhibitory effect
RFU relative to SP-H1 coated well [7]: 700 times
inhibitory effect on cell proliferation ([3]; 61.5 nM, 615 nM, 3.075 μM, HGF, 4-day treatment, n = 3): inhibited

TYFTWWELSPGCEEH [HGP-3]
binding capability to HGF when displayed on the surface of bacteria, compared with HGP-2 ([5]; flow cytometry): higher binding capability to HGF compared with HGP-2
binding to HGF in washed group [5]: bound to their targets as well as the regular ones

B1: HGF binding peptide-1, soluble synthetic peptide (peptide)
peptide: {FITC}-HRGLKWEIVPWSGCG
notes: the peptide of bacteria clone 1, synthesized free of bacteria; The methods say in general that FITC was labeled at the N-terminal of the peptides; also called HGP-1; FITC-labeled HGP-1; source: synthetic peptide (Shanghai Bootech Bioscience & Technology Co., Ltd.)
IC50 of inhibition of HGF (1 nM)-mediated A549 proliferation, MTT assay, 4 days [8]: 496 µM
Kd [9]: 1.73 µM
koff [9]: 0.00124 s⁻¹
kon [9]: 698 M⁻¹ s⁻¹
